Source: patent US9717671B2, “Composition for improving skin, hair and coat health containing flavanones” (Nestec S.A., priority 2003, dated 2017)

Assays:
[1] = system: interleukin 6 (IL-6); experiment: Real-time PCR of rat skin total RNA, IL-6 expression; type: in vivo, female wistar rats; conditions: rats fed 0.5% hesperidin diet, vs control diet
Description: (§1) FIG. 4: Real-time PCR analysis of total RNA isolated from rat skin fed either a control diet (ctrl) or a hesperidin-supplemented diet (0.1% Hp, 0.5% Hp) for the expression of CD1d1 and interleukin 6 (IL-6). Samples were analyzed in 3 pools containing 4 rats each and obtained Ct values are shown for CD1d1 in A and IL-6 in B. Dots represent averages of technical triplicates, bars the total average per group. Fold changes in relative expression of the supplementation compared to control diet and relative to a housekeeping gene are shown in C. The control diet was set to 1 fold and is represented by a thick line. Confident intervals were calculated using ANOVA.
(§2) Rat skin biopsies were obtained from the Heperidin growth trial (FIG. 2). Dorsal skin was excised, one part was fixed in 4% PFA and paraffin embedded, one part was cryo-preserved and another part was immediately frozen in liquid nitrogen.
(§3) Skin samples were homogenized with Lysing Matrix D, total RNAs were extracted using the ToTally RNA™ Kit following the manufacturer's instructions. RNA was eluted with 40 μl of nuclease-free water.
(§4) The quantification was performed using the Ribogreen® RNA quantitation Kit on 96-well plates and a fluorescence microplate reader according to the manual. Measurements were done in duplicate. The samples were diluted either 1:680 or 1:3400 in a final volume of 100 μl 1×TE buffer. […]
(§5) Data were analysed by ANOVA. […]

[2] = system: rat skin; experiment: Histopathological analysis of rat skin, hesperidin growth trial; type: in vivo, female wistar rats; conditions: rats fed hesperidin diet (0.1% and 0.5%) from weaning to 12 weeks of age, vs control diet
From the text: FIG. 3: Histopathological analysis of rat skin supplemented with hesperidin. 6 μm paraffin sections were de-waxed, stained with hematoxylin/eosin and mounted. Representative images in two magnifications are shown for the control group (A and D) and the groups supplemented with hesperidin (0.1%: B and E, 0.5% C and F).
as §2
Rat skin was dissected and fixed for 4 days in 4% paraformaldehyde in PBS (pH 7.4) at 4° C. and embedded in paraffin using a Leica Microsystem embedding apparatus. The tissues were washed in PBS and saline (0.9% NaCl) and dehydrated by passing them through saline solutions with increasing ethanol concentrations: 30 min each in 30%, 50%, 70%, 90%, 99%, 100% and an additional hour in 100%. Tissue samples were incubated twice for 30 min in xylene, followed by 2-3 h and 3 h incubations in paraffin wax at 60° C. 6 μm thick paraffin sections were cut using a Leica Microtome. Sections were de-waxed 5 min in xylene and dehydrated by passing them through a series of solutions with decreasing ethanol concentrations: 1 min each in 100%, 96%, 90%, 80%, 70%, and 50% ethanol. Finally, they were transferred into destilled water and stained. […]

[3] = system: CD1d1 antigen; experiment: Real-time PCR of rat skin total RNA, CD1d1 expression; type: in vivo, female wistar rats; conditions: vs control diet
Description: as §1, §2, §3, §4, §5

[4] = system: Human immortalized keratinocytes (HaCaT); experiment: Cytotoxicity assay (LDH activity in supernatant as a measure for cell death); type: cell-based; conditions: for cell death (LDH activity): normal culture conditions (without menadione)
Description: FIG. 1: HaCat cells were incubated with 10 μM hesperetin (hp, red bars) or low 10 μM hesperetin-7-O-glucuronide (hp-7-O-gluc, yellow bars) or equal amounts of DMSO as a control (blue bars) and treated with or without menadione for additional 5 h. The supernatant was analyzed for lactate dehydrogenase (LDH) activity and results were expressed relative to cells which were lysed with Triton X-100® before analysis (100% death). Human immortalized keratinocytes (HaCaT) were incubated with 10 μM hesperetin, 10 μM hesperetin-7-O-glucuronide or equal amounts of DMSO as a negative control for 16 h and 1 h before challenge. Cells were then treated with 100 μM menadione, a xenobiotic which generates reactive oxygen species intracellularly. Non-menadione treated cells were used as a positive control. After 5 h the supernatant was analysed for lactate dehydrogenase (LDH) activity as a measure for cell death using the CytoTox 96 non-radioactive cytotoxicity assay (Promega, USA).

| Compound | IL-6 mRNA levels in skin [1] | number of inflammatory cells in skin (histopathology) [2] | CD1d1 mRNA levels in skin ([3]; rats fed 0.1% hesperidin diet) | CD1d1 mRNA levels in skin ([3]; rats fed 0.5% hesperidin diet) | cell death (LDH activity) ([4]; 10 μM, vs DMSO control) | potency of protective effect compared to the aglycone ([4]; 10 μM each, FIG. 1) | protective effect against cell death (LDH activity) ([4]; 10 μM, challenged with 100 μM menadione for 5 h, vs DMSO control) |
| --- | --- | --- | --- | --- | --- | --- | --- |
| COc1ccc([C@@H]2CC(=O)c3c(O)cc(O[C@@H]4O[C@H](CO[C@@H]5O[C@@H](C)[C@H](O)[C@@H](O)[C@H]5O)[C@@H](O)[C@H](O)[C@H]4O)cc3O2)cc1O [hesperidin] | significantly reduced | reduced number of inflammatory cells | significantly decreased | significantly decreased |  |  |  |
| COc1ccc([C@@H]2CC(=O)c3c(O)cc(O)cc3O2)cc1O [hesperetin] |  |  |  |  | reducing cell death |  |  |
| COc1ccc([C@@H]2CC(=O)c3c(O)cc(O[C@@H]4O[C@H](C(=O)O)[C@@H](O)[C@H](O)[C@H]4O)cc3O2)cc1O [hesperetin-7-O-glucuronide] |  |  |  |  | reducing cell death | more potent compared to hp | even more pronounced |
